Five compounds from patent publication US10207023B2, “Antibacterial calcium-based materials” (NATIONAL CHENG KUNG UNIVERSITY, priority 2012, dated 2019) can be followed below.

The subject of test [1] is staphylococcus aureus (SA). Briefly: Disk diffusion assay (antibacterial zone). Type of test: cell-based. Conditions: for antibacterial behavior: commercially pure lithium compounds, dry- or wet-molded 3 mm high, 6 mm dia. cylinders; for anti-bacterial zones: wet-molded pure Li compound (0.6 M (NH4)2HPO4 setting solution, 1.4 MPa), 6 mm dia. cylinder. How it is done: To prepare a TSB medium, 6 g Tryptone (Neogen, USA), 2 g Soytone (Soytone BD, USA) and 2 g NaCl (J.T. Baker, USA) were placed into a beaker filled with 400 ml of double distilled water and mixed with a stir bar. After total dissolution, the pH of the solution was adjusted to 7.3 and the solution was autoclaved (121° C., 1.2 kg/cm^2) for 30 min.
To prepare a TSA medium, 6 g Tryptone (Neogen, USA), 2 g Soytone (Soytone BD, USA), 2 g NaCl (J.T. Baker, USA) and 6 g Agar (Neogen, USA) were placed into a beaker filled with 400 ml of double distilled water and mixed with a stir bar. After total dissolution, the pH of the solution was adjusted to 7.3 and the solution was autoclaved (121° C., 1.2 kg/cm^2) for 30 min. After being sterilized, the TSA medium was poured into a petri dish and allowed hardened. The TSA medium was then placed into an incubator at 30° C.
1 ml staphylococcus aureus (SA) containing TSB medium was transferred into a 15 ml centrifuge tube, wherein 10 ml phosphate buffered saline (PBS) was added and mixed gently. The mixture was centrifuged (KUBOTA 5922, Japan) at 3000 rpm for 10 minutes. The supernatant was removed and a SA pellet remained. 1 ml PBS was then added to suspend the pellet. 20 μl of the SA suspension and 180 μl PBS were transferred into each well of a 96 well plate. The absorbance was assayed using an ELISA reader (Sunrise, Tecan, Switzerland) at 600 nm to determine the bacterial concentration (cfu/ml) (200 μl of PBS was used as a negative control). Once determined, an appropriate volume of SA containing medium was transferred into a 1 micro centrifuge tube, wherein TSB was added to adjust bacterial concentration to 3.5×10^6 (cfu/ml). The tube was shaked for 15 seconds to allow thorough mixing. 100 μl of the SA containing medium was removed and dropped evenly across the agar plate. Once the broth was distributed evenly on agar plate and became almost dry, samples to be tested were placed on top of the agar and the petri dish was covered with a parafilm. The dish was placed in an incubator (LM-570R, Yih Der, Taiwan) at 37° C. for 24 hours. Bacteria colony formation was then observed and colony diameters measured.
After being loaded, the samples were placed on a table for 1 hour to become dry. Four samples were then placed into a 20 ml glass vial, wherein 8 ml Hanks' solution was added with a solid/liquid ratio of 0.1 g/ml. The glass vial was put into a water bath at 37° C. for 1, 2, 3, 5, and 7 days. The Hanks' solution was changed daily. Once having been soaked for desired periods of time, the samples were placed into a 50° C. oven for 24 hours, then stored in a zip lock bag.

The test system of a further test is S. aureus. Briefly: Antimicrobial activity measurement (CFU count in TSB). Type of test: cell-based. How it is done: Appropriate amount of UV-sterilized sample (either granule or cement) to be tested was put in a 12-well plate, wherein was added 1 ml Tryptone Soya Broth (TSB) with 10^6 live S. aureusbacteria in each well (concentration: 10^6 colony-forming units (CFU) per ml). S. aureusbacteria were cultured with the sample anaerobically at 37° C. One cultured without sample was considered as a positive control in each study group. The viability of the bacterial suspensions incubated with different samples was assessed using Tryptone Soya Agar (TSA) solid agar plates. After cultivation for 24 h, broth of each well was sequentially diluted and plated. The growth of bacteria was evaluated after cultivation on agar plates at 37° C. for 24 h. Then colony-forming units (CFU) were counted to calculate concentration using the equation,
[formula] and the antimicrobial activity is obtained by the following equation: Antimicrobial activity={[(Conc. of control group)−(conc. of experiment)]/(Conc. of control group)}×100%
Appropriate amounts of UV-sterilized Li3PO4 or Li2CO3 salt were each mixed with 1 ml TSB and tested for their antimicrobial activity values using the aforementioned method.
Appropriate amounts of “65/35” powder were mixed with appropriate amounts of Li3PO4 or Li2CO3 salt to form TTCP/DCPA/CSH/Li salt mixed powder with different Li salt ratios. The mixed powder was mixed with 0.6 M (NH4)2HPO4 solution to form a cement paste. Prior to being fully hardened, the paste was placed in a stainless steel mold under a pressure of 450 Kgf to squeeze a portion of the liquid out of the paste. After being hardened and removed from the mold, the hardened block was crushed and sieved into granules with a particle size range of about 0.4-1.2 mm. 0.2 g UV-sterilized thus-obtained granular sample was mixed with 1 ml TSB and tested for its antimicrobial activity using the aforementioned method.

`O=S(=O)([O-])[O-].[Li+].[Li+]` [Li2SO4, Lithium sulfate]: in test [1], the antibacterial behavior result is given as “high antibacterial behavior” and the anti-bacterial zones was 22 mm.

Turning to `[F-].[Li+]` [LiF, Lithium fluoride], the antibacterial behavior result in test [1] is listed as “high antibacterial behavior”.

With `[Li+].[Li+].[O-2]` [Li2O, Lithium oxide], in test [1], the antibacterial behavior result is on record as “high antibacterial behavior”.

Take `O=C([O-])[O-].[Li+].[Li+]` [Li2CO3, Lithium carbonate]: the “Antimicrobial activity (24 h)” value in the test on S. aureus (Li salt amount/TSB 0.06 g/ml), in the test on S. aureus (Li salt amount/TSB 0.08 g/ml), in the test with S. aureus (Li salt amount/TSB 0.10 g/ml), in the test on S. aureus (Li salt amount/TSB 0.12 g/ml) and with S. aureus (Li salt amount/TSB 0.14 g/ml) was 100% throughout. The “24 h antimicrobial activity value” with S. aureus (all Li2CO3 salt samples (0.06-0.14 g/ml TSB)) came out at 100%. For the same compound, in test [1], the antibacterial behavior result is reported as “high antibacterial behavior”. In test [1], this compound had an anti-bacterial zones of 18 mm.

Consider `O=P([O-])([O-])[O-].[Li+].[Li+].[Li+]` [Li3PO4, Lithium phosphate], for which, in the test on S. aureus (0.06-0.12 g Li3PO4 salt in 1 ml TSB), the “24 h antimicrobial activity values” is on record as 97.4-98.9%. Besides, the “Antimicrobial activity (24 h)” value in the test with S. aureus (Li salt amount/TSB 0.06 g/ml) turned out to be 98.9%; with S. aureus (Li salt amount/TSB 0.08 g/ml), 98.9%; in the test with S. aureus (Li salt amount/TSB 0.10 g/ml), 97.4%; with S. aureus (Li salt amount/TSB 0.12 g/ml), 98.8%; with S. aureus (Li salt amount/TSB 0.14 g/ml) it was 99.8%. The antibacterial behavior result in test [1] was “high antibacterial behavior”.
